T1: MmGADL1 (mouse glutamic acid decarboxylase-like protein 1) (Mus musculus, UniProt Q80WP8)
T1 construct: gene Gadl1; residues 1-502, N-terminal His6 tag and TEV site kept; expressed in E. coli; homodimer; residues 11-502 built, loop about 340-350 disordered
T1 sequence (Q80WP8 49-526 isoform Q80WP8-2): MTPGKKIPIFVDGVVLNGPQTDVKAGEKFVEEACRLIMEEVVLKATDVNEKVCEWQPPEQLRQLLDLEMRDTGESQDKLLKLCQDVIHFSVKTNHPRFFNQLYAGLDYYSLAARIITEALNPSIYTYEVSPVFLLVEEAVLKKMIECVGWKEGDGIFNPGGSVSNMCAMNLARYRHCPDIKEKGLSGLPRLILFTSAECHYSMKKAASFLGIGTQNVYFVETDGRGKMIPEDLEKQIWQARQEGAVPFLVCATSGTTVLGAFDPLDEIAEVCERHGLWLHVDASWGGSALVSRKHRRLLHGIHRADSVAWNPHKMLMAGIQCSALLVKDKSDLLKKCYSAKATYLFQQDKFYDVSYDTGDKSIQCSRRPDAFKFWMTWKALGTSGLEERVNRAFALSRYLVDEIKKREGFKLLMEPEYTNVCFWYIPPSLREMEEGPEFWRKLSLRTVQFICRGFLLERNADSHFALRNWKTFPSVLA


What was measured:
[1] = target: T1, MmGADL1 (mouse glutamic acid decarboxylase-like protein 1); test: X-ray crystallography, […] Å (crystal form […]); assay type: binding; conditions: covalent; Schiff base (internal aldimine) with Lys314; active site at dimer interface, both sites occupied
[2] = target: the molecule itself; test: SAXS; 1.6-6.5 mg/ml in 20 mM HEPES pH 7.4, 200 mM NaCl, 293 K; molecular mass from forward scattering I(0) against a monomeric BSA standard

Molecule | X-ray crystallography, 3.0 Å (crystal form 1) [1] | stoichiometry N [2]
Cc1ncc(COP(=O)(O)O)c(C=O)c1O [PLP] | Both active sites in the dimer are occupied by the PLP cofactor, which is covalently bound | 
mouse glutamic acid decarboxylase-like protein 1 (MmGADL1), His6-tagged, residues 1-502 (enzyme, PLP covalently bound to the N-epsilon atom of Lys314 through a Schiff base linkage (seen in the crystal)) MGPHHHHHHLESTSLYKKAGSENLYFQGMTPGKKIPIFVDGVVLNGPQTDVKAGEKFVEEACRLIMEEVVLKATDVNEKVCEWQPPEQLRQLLDLEMRDTGESQDKLLKLCQDVIHFSVKTNHPRFFNQLYAGLDYYSLAARIITEALNPSIYTYEVSPVFLLVEEAVLKKMIECVGWKEGDGIFNPGGSVSNMCAMNLARYRHCPDIKEKGLSGLPRLILFTSAECHYSMKKAASFLGIGTQNVYFVETDGRGKMIPEDLEKQIWQARQEGAVPFLVCATSGTTVLGAFDPLDEIAEVCERHGLWLHVDASWGGSALVSRKHRRLLHGIHRADSVAWNPHKMLMAGIQCSALLVKDKSDLLKKCYSAKATYLFQQDKFYDVSYDTGDKSIQCSRRPDAFKFWMTWKALGTSGLEERVNRAFALSRYLVDEIKKREGFKLLMEPEYTNVCFWYIPPSLREMEEGPEFWRKLSLVAPAIKEKMMKKGSLMLGYQPHRGKVNFFRQVVISPQVSREDMDFLLDEIDSLGRDM |  | 2 ratio to theoretical monomer

Source: PMC5947694, “Structure of the mouse acidic amino acid decarboxylase GADL1” (Acta Crystallographica. Section F, Structural Biology …, 2018)
